The assay has as its system human precision cut lung slices from a donor with idiopathic pulmonary fibrosis. The experiment in a line: Human precision cut lung slice (PCLS) culture, donor with idiopathic pulmonary fibrosis. The conditions noted are these: IPF donor PCLS; FIG. 2b. The assay is classed as cell-based. The procedure: Human PCLS were generated from lung explants of patients with pulmonary fibrosis (donor ID #221028) or normal donor (donor ID #220730). Cryopreserved hPCLSs were obtained from Institute for In Vitro Sciences (IIVS) and maintained with air-liquid interface culture approach under 37° C., 5% CO2 and 95% humidity. hPCLS were cultured in DMEM-F12 (Invitrogen, Cat No. 11330032) containing 0.2% primocin (Invivogen, Cat No. ant-pm-1) and 1% insulin-transferrin-selenium (ITS-G; Invitrogen, Cat No. 41400045), after initial acclimation in acclimation media, including culture media supplemented with 1% antibiotic antimycotic solution (Invitrogen, Cat No. 15240062), 2 mM Hydrocortisone (Millipore Sigma,) and 5 mg/ml 2-phospho-L-abscorbic acid trisodium salt (Millipore Sigma, Cat No. 49752-10G) for 3 days. Slices of tissue were flatly grown in the tissue culture inserts with 0.4 μm pores of a 12-well plate (StemCell Technologies, Cat No. 1001027), supplemented with 100 μl culture media in the apical side containing PCLSs, and 900 μL culture media in the basal compartment. Media were changed every 48 hours. hPCLS were treated and randomly assigned in replicates of 6-8 per condition 7 days after recovery from cryopreservation. […] IPF donor PCLS were collected at day 8 for subsequent RNA isolation and gene expression quantification. […]

Regarding `COc1ccc(-c2nc3sc4c(O)c(Cl)ccc4c3c(=O)n2Cc2cnco2)c(C2CC2)c1` [Example 26, 7-chloro-2-(2-cyclopropyl-4-methoxyphenyl)-8-hydroxy-3-(oxazol-5-ylmethyl)benzo[4,5]thieno[2,3-d]pyrimidin-4(3H)-one], the “secreted fibronectin (lung fibronectin content)” value is “decreased”.
